Measurements: patent US10220024B2, “Method of inhibiting cancer cell, method for detecting cancer cell, and system for detecting cancer cell” (CANON KABUSHIKI KAISHA, priority 2012, dated 2019)
Read-outs that look alike come from different tables or passages of the source.

Columns and labels:
[1] = tested on: Human pancreas cancer cells, KLM-1; assay: Cancer cell inhibitory (growth suppressive) action against pancreatic cancer cells, CellTiter-Glo viable cell count; format: cell-based; settings: KLM1, KLM-1, 10 μg/mL, 24 hours
Procedure: Observation on cancer cell inhibitory (growth suppressive) action against pancreatic cancer cells Human pancreas cancer cells, KLM-1, were pre-cultured in RPMI1640 medium containing 10% FBS at 37° C. in a 5% CO2 ambient. Thereafter, 4,000 cells were seeded per well of a 96-well plate and further cultured for 24 hours. Subsequently, Compound (1) was added to the medium so as to obtain a final concentration of 10 μg/mL and cultured at 37° C. for 24 hours in a 5% CO2 ambient. The cultured cells were analyzed for viable cell count according to CellTiter-Glo Luminescent Cell Viability Assay (manufactured by Promega KK.). As a reference, the number of cells cultured in a medium containing a 0.1% dimethylsulfoxide solution (hereinafter, simply referred to as DMSO) in place of a medium containing Compound (1), in the aforementioned operation, was regarded (100%).
Viable cell count was analyzed in the same manner as in Experimental Example 1 except that Compound (1) of Experimental Example 1 was changed to compounds shown in Table 2.
Viable cell count was analyzed in the same manner as in Experimental Example 1 except that Compound (1) was changed to comparative compounds 1 to 4.
Viable cell counts of Experimental Examples 1 to 7 and Comparative Examples 1 to 4 were analyzed to obtain growth rates.
Evaluation of cancer cell inhibition against the pancreatic cancer cells (KLM-1) (growth suppression) was made based on the following criteria. Note that the growth rate in Examples herein is a numerical value of the number of cells obtained after culture relative to the number of cells (regarded as 100) grown in a medium containing 0.1% DMSO. Evaluation of cancer cell inhibition against the pancreatic cancer cells (KLM-1) was made as follows. • A: Cancer cell growth rate is less than 20% (cancer cell inhibitory (growth suppressive) effect is extremely high) • B: Cancer cell growth rate is 20% or more and less than 50% (cancer cell inhibitory (growth suppressive) effect is high) • C: Cancer cell growth rate is 50% or more (cancer cell inhibitory (growth suppressive) effect is low)

[2] = tested on: K562 ALDH (+) fraction (cancer stem cells); assay: Cancer stem-cell selective inhibitory action against chronic myelocytic leukemia cells, ALDH (+) fraction, CellTiter-Glo; format: cell-based; settings: Homo sapiens, 24 hours; for activity at 0.05 µg/mL: 0.05 μg/mL; for activity at 0.5 µg/mL: 0.5 μg/mL; for activity at 1 µg/mL: 1 μg/mL
Procedure: Human chronic myelocytic leukemia cells, K562, were pre-cultured in RPMI1640 medium containing 10% FBS at 37° C. in a 5% CO2 ambient. Then, a fraction containing 80% or more of cancer stem cells was extracted by use of ALDEFLUOR reagent (manufactured by VERITAS Corporation) and FACSAria flow cytometry (manufactured by Nippon Becton, Dickinson and Company). Subsequently, Compound (5) was added to the medium so as to obtain a final concentration of 10 μg/mL and cultured at 37° C. for 24 hours in a 5% CO2 ambient. The cultured cells were analyzed for viable cell count according to CellTiter-Glo Luminescent Cell Viability Assay (manufactured by Promega KK.). As a reference, the number of cells cultured in a medium containing a 0.1% dimethylsulfoxide solution (hereinafter, simply referred to as DMSO) in place of a medium containing Compound (1), in the aforementioned operation, was used as 0.1. Note that hereinafter, an ALDEFLUOR reagent positive fraction (deemed as cancer stem cells) is represented by ALDH (+), whereas an ALDEFLUOR reagent negative fraction (not deemed as cancer stem cells) is represented by ALDH (−), in some cases.
The same operation as in Experimental Example 12 was repeated except that Compound (5) in Experimental Example 12 was changed to the compounds shown in Table 4 and final concentrations shown in Table 4 were used and viable cell counts were separately analyzed. Note that the growth rate in Examples herein is a numerical value of the number of cells obtained after culture relative to the number of cells (regarded as 0.1) grown in a medium containing 0.1% DMSO.
The same operation as in Experimental Example 12 was repeated except that Compound (5) in Experimental Example 12 was changed to Imatinib (manufactured by NOVARTIS), which is a general anticancer drug, and comparative compounds shown in Table 4 and final concentrations shown in Table 4 were used and viable cell counts were separately analyzed.
The growth suppressive effect of cancer stem cells was evaluated based on the following criteria. Note that the growth rate in Examples herein is a numerical value relative to the number of cells (regarded as 0.1) grown in a medium containing 0.1% DMSO. • A: The value of ALDH (+) is less than 0.5 (growth suppressive effect against cancer stem cells is extremely high) • B: The value of ALDH (+) is 0.5 or more and less than 0.95 (growth suppressive effect against cancer stem cells is high) • C: The value of ALDH (+) is 0.95 or more (no growth suppressive effect against cancer stem cells)
Furthermore, superiority of cancer stem cells was evaluated by comparing cancer stem cells to cancer cells based on the following criteria. ALDH (+) represents cancer stem cells; whereas ALDH (−) represents general cancer cells. • A: The value of ALDH (+)/ALDH (−) is less than 0.8 (selective inhibitory effect against cancer stem cells is extremely high) • B: The value of ALDH (+)/ALDH (−) is 0.8 or more and less than 0.95 (selective inhibitory effect against cancer stem cells is high) • C: The value of ALDH (+)/ALDH (−) is 0.95 or more (no selective inhibitory effect against cancer stem cells)

K562 ALDH (−) cells = assay: Cancer stem-cell selective staining, fluorescent microscopy, ALDH (−) cells; format: cell-based, Human; settings: cells cultured for 24 hours in Experimental Example 16 (1 μg/mL)
Procedure: The cells cultured for 24 hours in Experimental Example 16 were subjected to nuclear staining with Hoechest33342 (manufactured by Dojindo Laboratories) and a fluorescent image observed under AXIOVERT200M inverted fluorescent microscope (manufactured by Carl Zeiss) was photographed.

[3] = read-out: Growth suppression evaluated
[4] = relative to 0.1% DMSO, read-out: ALDH(+) (growth rate)

## COc1ccc(N2c3ccc(/C=C/C4=[N+](C)c5ccccc5C4(C)C)cc3C3CCCC32)cc1 (stereo not drawn) [Compound 11]
[1]; read-out: Evaluation (cancer cell growth rate)
  activity at 10 µg/mL: < 20%
[1]; relative to 0.1% DMSO (100), read-out: Cancer cell growth rate (%)
  activity at 10 µg/mL: 2.6%
[2]; [3]
  activity at 0.05 µg/mL: 50 to 95%
  activity at 0.5 µg/mL: < 50%
  activity at 1 µg/mL: < 50%
[2]; [4]
  activity at 0.05 µg/mL: 65%
  activity at 0.5 µg/mL: 32%
  activity at 1 µg/mL: 12%
K562 ALDH (−) cells
  ALDH(−) (ratio of ALDH (−) cells stained): 48.5%
